41 compounds from patent US20260176270A1 (Exelixis, Inc., priority 2022, published 2026) can be followed below.

Like-named read-outs stand apart in the source and are kept apart here.

The target in one assay is T1, PKMYT1 (Homo sapiens, UniProt Q99640).
T1 construct: PKMYT1 (93 kD, full length, N-terminal GST tag from Signal Chem); GST (N); purchased Signal Chem
T1 sequence (Q99640 1-499): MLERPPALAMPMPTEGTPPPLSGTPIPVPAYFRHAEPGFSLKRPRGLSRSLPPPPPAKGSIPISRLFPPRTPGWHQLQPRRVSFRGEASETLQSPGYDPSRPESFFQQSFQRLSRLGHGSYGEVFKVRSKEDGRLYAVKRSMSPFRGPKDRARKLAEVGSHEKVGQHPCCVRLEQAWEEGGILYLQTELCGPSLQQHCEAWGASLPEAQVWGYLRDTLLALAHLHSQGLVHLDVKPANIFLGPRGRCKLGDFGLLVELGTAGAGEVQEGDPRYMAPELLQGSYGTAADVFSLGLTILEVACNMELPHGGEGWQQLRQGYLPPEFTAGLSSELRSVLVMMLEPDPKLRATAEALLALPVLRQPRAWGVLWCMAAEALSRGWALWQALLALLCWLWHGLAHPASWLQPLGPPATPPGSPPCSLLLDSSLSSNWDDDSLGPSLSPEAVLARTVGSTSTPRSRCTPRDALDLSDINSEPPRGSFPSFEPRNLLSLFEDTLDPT
Nature of the assay: ADP-Glo PKMYT1 ATP-depletion assay. To be noted: 50 nM PKMYT1, 13.3 nM CDK1, read-out: Biochemical IC50. An outline of the steps: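 Full-length N-terminal GST-tagged PKMYT1 (50 nM) with GST-CDK1 (13.3 nM) as substrate and 88 µM ATP, in Hepes buffer with MgCl2, MnCl2, DTT and BSA; DMSO <1%. Incubated 120 min at RT. ADP formed was quantified by ADP-Glo luminescence and used to derive biochemical IC50.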

Assay [1] concerns phosphorylation of CDK1 at Thr14 in HCC1806 cells. Description: Cell lysate AlphaLISA assay measuring inhibition of phosphorylation of CDK1 Thr14. In kind it is cell-based. Particulars: read-out: Cellular IC50. In short, it runs like this: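 HCC1806 cells seeded overnight, then treated 4 h at 37 °C, 5% CO2 with compounds in DMSO; washed and lysed, lysates frozen overnight at −80 °C. CDK1 Thr14 phosphorylation read by AlphaLISA SureFire Ultra; data normalized to DMSO (0% inhibition) and 3 μM reference compound to give IC50.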
(Alpha assays give light when donor and acceptor beads are brought close together.)

A word on the IC50: it is the concentration at which inhibition is half-maximal. With `Cc1cnc2cc(C(N)=O)c(N)c(-c3c(C)ccc(O)c3C)c2n1` (atropisomer, axis not shown) [Compound 192], the IC50 (at PKMYT1; in assay [1] (4 hours)) was no less than 5 µM in each case.

Turning to `Cc1c(-c2c(N)c(C(N)=O)cc3nccnc23)ccc(F)c1O` [Compound 227], the IC50 on PKMYT1 was less than 0.05 µM; in assay [1] (Homo sapiens, HCC1806, 4 h), 0.05 to 0.5 µM.

`Cc1ncccc1-c1c(N)c(C(N)=O)nc2cccnc12` [Compound 207]: the IC50 on PKMYT1 was no less than 5 µM; in assay [1] (Homo sapiens, HCC1806, 4 h), no less than 5 µM.

Take `Cc1c(O)cccc1-c1c(N)c(C(N)=O)cc2cccnc12` (single isomer, unassigned) [Compound 63]: the figures for the IC50 (at PKMYT1; in assay [1] (4 hours)) were 1 to 5 µM and no less than 5 µM, respectively.

On to `NC(=O)c1cc2nccnc2c(-c2cccc3[nH]ncc23)c1N` [Compound 108, 7-Amino-8-(1H-indazol-4-yl)quinoxaline-6-carboxamide], for which the IC50 on PKMYT1 was 0.05 to 0.5 µM; in assay [1] (Homo sapiens, HCC1806, 4 h), 1 to 5 µM.

As to `NC(=O)c1nc2cccnc2c(-c2cncc(Cl)c2Cl)c1N` [Compound 258], the 50% inhibitory concentration (IC50) on PKMYT1 is less than 0.05 µM; in assay [1] (Homo sapiens, HCC1806, 4 h), 0.05 to 0.5 µM.

For the compound `COc1ccc2nc(C(N)=O)c(N)c(-c3cccc(O)c3C)c2n1` [Compound 157], the 50% inhibitory concentration (IC50) is less than 0.05 µM at PKMYT1 and 0.05 to 0.5 µM in assay [1] (4 hours).

Take `Cc1ccc(-c2c(N)c(C(N)=O)nc3cccnc23)c(C)c1O` (atropisomer, axis not shown) [Compound 287]: the IC50 (at PKMYT1; in assay [1] (4 hours)) was no less than 5 µM in each case.

For `Cc1ccc2c(-c3cccc(O)c3C)c(N)c(C(N)=O)nc2c1` (single isomer, unassigned) [Compound 50, (P)-3-amino-4-(3-hydroxy-2-methylphenyl)-7-methylquinoline-2-carboxamide], the IC50 (at PKMYT1; in assay [1] (4 hours)) was no less than 5 µM throughout.

On to `NC(=O)c1cc2nccnc2c(-c2cccc(O)c2Cl)c1N` [Compound 97, 7-Amino-8-(2-chloro-3-hydroxyphenyl)quinoxaline-6-carboxamide], for which the IC50 at PKMYT1 is less than 0.05 µM; in assay [1] (Homo sapiens, HCC1806, 4 h), 0.05 to 0.5 µM.

Consider `Cc1c(O)cncc1-c1c(N)c(C(N)=O)cc2nccnc12` [Compound 113, 7-amino-8-(5-hydroxy-4-methylpyridin-3-yl)quinoxaline-6-carboxamide], for which the 50% inhibitory concentration (IC50) at PKMYT1 was 0.05 to 0.5 µM; in assay [1] (Homo sapiens, HCC1806, 4 h), 1 to 5 µM.

In the case of `NC(=O)c1nc2cccnc2c(-c2cnn3c2CCCC3)c1N` [Compound 322], the IC50 was 1 to 5 µM on PKMYT1 and no less than 5 µM in assay [1] (Homo sapiens, HCC1806, 4 h).

Turning to `Cc1ccc2[nH]ncc2c1-c1c(N)c(C(N)=O)nc2cccnc12` (single isomer, unassigned) [Compound 7, (P)-3-amino-4-(5-methyl-1H-indazol-4-yl)-1,5-naphthyridine-2-carboxamide], the IC50 on PKMYT1 was 0.05 to 0.5 µM; in assay [1] (4 hours), 1 to 5 µM.

As to `Cc1c(O)cccc1-c1c(N)c(C(N)=O)cc2ncccc12` (atropisomer, axis not shown; (P)) [Compound 69, (P)-6-amino-5-(3-hydroxy-2-methylphenyl)quinoline-7-carboxamide], the IC50 on PKMYT1 is 1 to 5 µM; in assay [1] (4 hours), no less than 5 µM.

Take `Cc1c(O)cccc1-c1c(N)c(C(N)=O)cc2nc(C)c(=O)n(C)c12` [Compound 138]: the concentration for half-maximal inhibition (IC50) at PKMYT1 lay in the range of 0.05 to 0.5 µM; in assay [1] (4 hours), 1 to 5 µM.

As for `Cc1ccc(O)c(C)c1-c1c(N)c(C(N)=O)nc2c(F)cccc12` [Compound 25], the IC50 at PKMYT1 fell in the range of 0.05 to 0.5 µM; in assay [1] (Homo sapiens, HCC1806, 4 h) it was 1 to 5 µM.

In the case of `NC(=O)c1nc2cccnc2c(-c2cc(F)cc3[nH]ncc23)c1N` [Compound 203], the IC50 on PKMYT1 fell in the range of 0.05 to 0.5 µM; in assay [1] (Homo sapiens, HCC1806, 4 h) it was 1 to 5 µM.

As to `COc1nc2c(-c3cccc(O)c3C)c(N)c(C(N)=O)cc2nc1C` [Compound 173], the 50% inhibitory concentration (IC50) (at PKMYT1; in assay [1] (4 hours)) was 0.05 to 0.5 µM throughout.

Regarding `NC(=O)c1cc2nccnc2c(-c2cccc3cncn23)c1N` [Compound 316], the half-inhibitory concentration (IC50) at PKMYT1 is 0.5 to 1 µM; in assay [1] (Homo sapiens, HCC1806, 4 h) it was no less than 5 µM.

For the compound `Cc1ccc(O)cc1-c1c(N)c(C(N)=O)cc2nccnc12` (atropisomer, axis not shown; (P)) [Compound 117, (P)-7-amino-8-(5-hydroxy-2-methylphenyl)quinoxaline-6-carboxamide], the half-inhibitory concentration (IC50) at PKMYT1 was 1 to 5 µM; in assay [1] (4 hours), no less than 5 µM.

In the case of `COc1ccc2nc(C(N)=O)c(N)c(-c3cncc(C(F)F)c3C)c2n1` [Compound 314], the 50% inhibitory concentration (IC50) at PKMYT1 is 0.5 to 1 µM; in assay [1] (Homo sapiens, HCC1806, 4 h), no less than 5 µM.

As for `Cc1cnc2c(-c3c(C)ccc(O)c3C)c(N)c(C(N)=O)cc2c1` (atropisomer, axis not shown) [Compound 213], the half-inhibitory concentration (IC50) at PKMYT1 is less than 0.05 µM; in assay [1] (Homo sapiens, HCC1806, 4 h) it was 0.05 to 0.5 µM.

As for `Cc1cnc2cc(C(N)=O)c(N)c(-c3c(C)ccc(O)c3C)c2n1` [Compound 156], the IC50 is less than 0.05 µM on PKMYT1 and 0.05 to 0.5 µM in assay [1] (4 hours).

Take `Cc1ccc(O)c(C)c1-c1c(N)c(C(N)=O)nc2ccc(Cl)cc12` (single isomer, unassigned) [Compound 54, (P)-3-amino-6-chloro-4-(3-hydroxy-2,6-dimethylphenyl)quinoline-2-carboxamide]: the half-maximal inhibitory concentration (IC50) (at PKMYT1; in assay [1] (4 hours)) was no less than 5 µM in each case.

With `NC(=O)c1cc2nccnc2c(-c2cc(O)cnc2Cl)c1N` (atropisomer, axis not shown) [Compound 163], the results for the IC50 (at PKMYT1; in assay [1] (4 hours)) were 1 to 5 µM and no less than 5 µM, respectively.

On to `Cc1c(O)cccc1-c1c(N)c(C(N)=O)cc2c1ncc(=O)n2C` [Compound 219], for which the IC50 on PKMYT1 was 1 to 5 µM; in assay [1] (Homo sapiens, HCC1806, 4 h), no less than 5 µM.

As to `Cc1cnc2c(-c3c(C)ccc(O)c3C)c(N)c(C(N)=O)cc2n1` (atropisomer, axis not shown) [Compound 222], the half-maximal inhibitory concentration (IC50) (at PKMYT1; in assay [1] (4 hours)) was less than 0.05 µM each time.

Regarding `NC(=O)c1nc2cccnc2c(-c2ccc3c[nH]nc3c2)c1N` [Compound 204], the half-inhibitory concentration (IC50) was 1 to 5 µM on PKMYT1 and no less than 5 µM in assay [1] (Homo sapiens, HCC1806, 4 h).

On to `Cc1c(O)cccc1-c1c(N)c(C(N)=O)nc2cc(C(F)(F)F)ccc12` (atropisomer, axis not shown) [Compound 147], for which the IC50 (at PKMYT1; in assay [1] (4 hours)) was 1 to 5 µM in each case.

For the compound `Cc1c(O)cccc1-c1c(N)c(C(N)=O)nc2nccc(Cl)c12` [Compound 261], the IC50 on PKMYT1 is no less than 5 µM; in assay [1] (Homo sapiens, HCC1806, 4 h), no less than 5 µM.

Regarding `Cc1c(Cl)cncc1C1=c2ncccc2=NC(C(N)=O)C1N` (stereo not shown) [Compound 239], the IC50 (at PKMYT1; in assay [1] (4 hours)) was no less than 5 µM each time.

`Cc1ccc(-c2c(N)c(C(N)=O)nc3cccnc23)c(C)c1O` (atropisomer, axis not shown) [Compound 288]: the figures for the 50% inhibitory concentration (IC50) (on PKMYT1; in assay [1] (4 hours)) were less than 0.05 µM and 0.05 to 0.5 µM, respectively.

`Cc1c(-c2c(N)c(C(N)=O)nc3cccnc23)cnn1C` [Compound 320]: the IC50 on PKMYT1 was no less than 5 µM; in assay [1] (Homo sapiens, HCC1806, 4 h) it was 1 to 5 µM.

`NC(=O)c1cc2nccnc2c(-c2c(Cl)ccc3[nH]ncc23)c1N` (atropisomer, axis not shown) [Compound 247]: the IC50 on PKMYT1 was 1 to 5 µM; in assay [1] (4 hours) it was no less than 5 µM.

Consider `NC(=O)c1cc2nccnc2c(-c2cccc(O)c2Cl)c1N` (single isomer, unassigned) [Compound 106, (M)-7-amino-8-(2-chloro-3-hydroxyphenyl)quinoxaline-6-carboxamide], for which the concentration for half-maximal inhibition (IC50) (on PKMYT1; in assay [1] (4 hours)) was no less than 5 µM throughout.

With `Cc1ccc(O)c(C)c1-c1c(N)c(C(N)=O)nc2cc(F)ccc12` [Compound 43, 3-Amino-7-fluoro-4-(3-hydroxy-2,6-dimethylphenyl)quinoline-2-carboxamide], the half-maximal inhibitory concentration (IC50) at PKMYT1 was in the range of 0.05 to 0.5 µM; in assay [1] (Homo sapiens, HCC1806, 4 h), 1 to 5 µM.

Regarding `Cc1nc2cc(C(N)=O)c(N)c(-c3cccc(O)c3C)c2nc1C` [Compound 91, 7-Amino-8-(3-hydroxy-2-methylphenyl)-2,3-dimethylquinoxaline-6-carboxamide], the IC50 on PKMYT1 was in the range of 0.05 to 0.5 µM; in assay [1] (Homo sapiens, HCC1806, 4 h) it was 0.05 to 0.5 µM.

Take `Cc1c(O)cccc1-c1c(N)c(C(N)=O)nc2cccc(F)c12` (single isomer, unassigned) [Compound 57, (P)-3-Amino-5-fluoro-4-(3-hydroxy-2-methylphenyl)quinoline-2-carboxamide]: the figures for the IC50 (at PKMYT1; in assay [1] (4 hours)) were less than 0.05 µM and 0.05 to 0.5 µM, respectively.

On to `Cc1c(O)cccc1-c1c(N)c(C(N)=O)nc2c(=O)[nH]cnc12` [Compound 282], for which the IC50 at PKMYT1 is 0.05 to 0.5 µM; in assay [1] (Homo sapiens, HCC1806, 4 h) it was no less than 5 µM.

As for `Cc1c(O)cncc1-c1c(N)c(C(N)=O)nc2cccnc12` [Compound 155], the concentration for half-maximal inhibition (IC50) at PKMYT1 fell in the range of 0.05 to 0.5 µM; in assay [1] (Homo sapiens, HCC1806, 4 h) it was 0.5 to 1 µM.

Turning to `Cc1c(O)cccc1-c1c(N)c(C(N)=O)cc2ncc(C(F)(F)F)nc12` [Compound 115, 7-Amino-8-(3-hydroxy-2-methylphenyl)-2-(trifluoromethyl)quinoxaline-6-carboxamide], the IC50 on PKMYT1 was in the range of 0.05 to 0.5 µM; in assay [1] (4 hours), 0.5 to 1 µM.
